Earlier results as cited in patent US9072783B2, “Highly dispersible powders, compositions and methods for preparation” (Aridis Pharmaceuticals, priority 2009, dated 2015).

Settings: of the amino acid itself (Table 3)

Row | Compound | Hydropathy Index
1 | N[C@@H](CC(=O)O)C(=O)O [Aspartic Acid, aspartic acid] | −3.5
2 | N[C@@H](Cc1ccc(O)cc1)C(=O)O [Tyrosine, tyrosine] | −1.3
